Measurements as given in paper PMC9788182, “Natural Compounds as Non-Nucleoside Inhibitors of Zika Virus Polymerase through Integration of In Silico and In Vitro Approaches” (Pharmaceuticals, 2022).
Like-named read-outs stand apart in the source and are kept apart here.

Experiments:
[1] = system: SARS-CoV-2 RdRp; parameters: method as in PMID 35732785; settings: cited from earlier work
[2] = Cell viability, MTT; type: cell-based; settings: African green monkey, Vero cells
Procedure: Cell viability was measured by the MTT [3-(4,5-dimethylthiazol-2-yl)-2,5-diphenyl tetrazolium bromide] (Sigma–Aldrich) method. Vero cells were seeded in a 96-well plate at a density of 5 × 10^3 cells per well and incubated overnight at 37 °C in a humidified 5% CO2 incubator. A drug-containing medium at concentrations ranging from 200 to 0.005 µM was added to the cell culture. After 72 h at 37 °C, the media was removed and a solution containing MTT at the final concentration of 1 mg/mL was added to each well and incubated for 30 min at 37 °C in a humidified 5% CO2 incubator, after which media was replaced with 100 μL of DMSO to solubilize the formazan crystals. Absorbance was measured by the optical density (OD) of each well at 490 nm, using a spectrophotometer. Cell viability was calculated according to the equation (T/C) × 100%, where T and C represent the mean optical density of the treated group and vehicle control group, respectively. […] 8 [95].

[3] = system: ZIKV^BR; assay: Antiviral assay, Vero cells infected with ZIKV^BR, foci by immunofluorescence; type: cell-based, Zika virus; settings: for SI (selectivity index): SI = CC50/EC50, Vero cells; for EC50: Zika virus, read-out: EC50 ZIKV
Procedure: The anti-ZIKV activities of the pedalitin and quercetin were further investigated through the employment of Vero cells infected with ZIKV wild type (ZIKV^BR) (Figure 6). […] Vero cells were infected with ZIKV^BR and simultaneously treated with pedalitin or quercetin at concentrations ranging from 200 µM to 0.005 µM for 72 h when viral replication rates were assessed (Figure 6). Cell viability analysis was performed in parallel (Figure 6).
Vero cells were seeded at density of 5 × 10^3 cells per well into 96-well plates 24 h prior to the infection. ZIKV-WT^BR at a multiplicity of infection (MOI) of 0.1 and compound at concentrations ranging from 200 to 0.005 µM were simultaneously added to cells. 72 h post-infection (h.p.i.), cells were fixed with paraformaldehyde 4%, washed with PBS and blocking buffer (BB) containing: 0.1% Triton X-100 (Vetec Labs, PR, BR), 0.2% bovine albumin (BSA) and PBS for 30 min. Then, cells were incubated with primary rabbit polyclonal anti-NS3 antibody diluted in BB for 1 h. Alexa Fluor 488 conjugated anti-rabbit IgG was used as secondary antibody (Abcam, Cambridge, UK). Images were analyzed by EVO cell imaging systems fluorescence microscopy (Thermo Fisher Scientific, OH, USA) and foci of infection were counted. The antiviral activity was calculated according to the equation (T/C) × 100%, where T and C represent the mean of the treated group and mean of the […], respectively. […] 8. The values of CC50 and EC50 were used to calculate the selectivity index (SI = CC50/EC50).

[4] = system: DENV-2 virus; parameters: method as in PMID 22201648; settings: Vero cells, cited from earlier work
[5] = target: ZIKV NS5 RdRp (Zika virus, UniProt Q32ZE1); assay: ZIKV NS5-RdRp activity assays (endpoint and concentration-response); type: biochemical; settings: for inhibition at 20 µM: endpoint assay at 20 µM, read-out: inhibitory activity against ZIKV RdRp
Chain of ZIKV NS5 RdRp (Q32ZE1 2822-3419): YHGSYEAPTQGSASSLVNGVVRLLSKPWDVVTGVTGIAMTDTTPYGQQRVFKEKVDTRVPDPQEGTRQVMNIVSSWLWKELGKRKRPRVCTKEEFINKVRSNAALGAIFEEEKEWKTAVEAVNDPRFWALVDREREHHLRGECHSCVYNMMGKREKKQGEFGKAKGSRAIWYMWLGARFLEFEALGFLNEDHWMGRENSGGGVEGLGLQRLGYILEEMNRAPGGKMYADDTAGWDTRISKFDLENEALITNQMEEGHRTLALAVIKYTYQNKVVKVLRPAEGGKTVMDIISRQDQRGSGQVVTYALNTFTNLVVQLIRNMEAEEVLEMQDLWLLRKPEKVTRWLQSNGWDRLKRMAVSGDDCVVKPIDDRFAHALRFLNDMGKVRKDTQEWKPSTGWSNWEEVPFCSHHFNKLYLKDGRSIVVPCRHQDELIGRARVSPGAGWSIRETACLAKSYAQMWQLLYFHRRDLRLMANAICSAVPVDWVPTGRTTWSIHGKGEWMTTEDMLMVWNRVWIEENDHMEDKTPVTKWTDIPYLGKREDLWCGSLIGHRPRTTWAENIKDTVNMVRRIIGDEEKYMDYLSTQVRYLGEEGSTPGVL
Procedure: Nine prioritized hits were submitted to endpoint assay at 20 µM to verify their inhibitory activity against ZIKV RdRp. […] Pedalitin and quercetin were the only ones with activity greater than 80%, with inhibitory activity of 97% and 99%, respectively, and consequently were selected for the concentration-response assays.
We then investigated ZIKV RdRp activity in the presence of pedalitin and quercetin.
ZIKV NS5-RdRp activity assays were performed as described by Fernandes and coworkers. The endpoint assays were performed at 20 μM, and the compounds that inhibited more than 80% of activity in this assay were submitted to a concentration-response test. The concentration-responses assays were performed as described in [94]. In all cases, the percentage inhibition values were calculated based on a control reaction, containing only DMSO in the same concentrations used for the tested compounds. The results were analyzed and plotted using the GraphPad Prism v. 8.0 program.

[6] = system: ZIKV; parameters: method as in PMID 30392049; settings: Vero cells; cited from earlier work
[7] = system: DENV1 RdRP; parameters: method as in earlier work; settings: ref 49 (13), ref 8 (14), ref 24 (15); cited from earlier work
[8] = system: DENV4 RdRP; parameters: method as in earlier work; settings: ref 49 (13), ref 8 (14), ref 24 (15); cited from earlier work
[9] = system: DENV3 RdRP; parameters: method as in earlier work; settings: ref 49 (13), ref 8 (14), ref 24 (15); cited from earlier work
[10] = system: DENV2 RdRP; parameters: method as in earlier work; settings: ref 49 (13), ref 8 (14), ref 24 (15); cited from earlier work
[11] = system: ZIKV RdRp; parameters: method as in PMID 28098253; settings: cited from earlier work
[12] = system: DENV RdRP; settings: ref 31 (10), ref 21 (11), ref 30 (12); cited from earlier work
[13] = system: ZIKV RdRp; parameters: method as in PMID 31310806; settings: cited from earlier work
[14] = system: Japanese encephalitis virus (JEV); settings: cited from earlier work
[15] = system: DENV-2; parameters: method as in PMID 34126315, PMID 24965553; settings: read-out: DENV2 EC50; cited from earlier work

Compound: O=c1cc(-c2ccc(O)c(O)c2)oc2cc(O)cc(O)c12 [luteolin]
- IC50 [1]: 4.6 µM

Compound: O=c1c(O)c(-c2ccc(O)c(O)c2)oc2cc(O)cc(O)c12 [Compound 9, Quercetin]
- CC50 at 72 h [2]: 36 µM
- SI (selectivity index) [3]: 2.03
- EC50 ([3]; Vero cells, ZIKV^BR MOI 0.1, 72 h, 200 to 0.005 µM): 17.7 µM
- EC50 ([4]; administration after viral adsorption): 95.6 µM
- reduction of DENV-2 replication ([4]; concentration of 165.4 µM): 67%
- IC50 [1]: 6.9 µM
- IC50 ([5]; concentration-response, 80 µM to 0.156 µM, read-out: IC50 ZIKV RdRp): 0.5 ± 0.1 µM
- inhibition at 20 µM [5]: 99%

Compound: O=C(O)[C@H]1O[C@@H](Oc2cc3oc(-c4ccccc4)cc(=O)c3c(O)c2O)[C@H](O)[C@@H](O)[C@@H]1O [Compound 19, baicalin]
- EC50 [6]: 14 µM

Compound: COc1cc2oc(-c3ccc(O)c(O)c3)cc(=O)c2c(O)c1O [Compound 8, Pedalitin]
- CC50 at 72 h [2]: 83.7 µM
- SI (selectivity index) [3]: 4.34
- EC50 ([3]; Vero, 72 h): 19.3 µM
- IC50 [5]: 4.1 ± 0.3 µM
- inhibition at 20 µM [5]: 97%

Compound: COc1cccc(S(=O)(=O)NC(=O)c2cc(-c3ccc(C#CCO)s3)c(OC)cc2OC)c1 [Compound 14, 5-(5-(3-Hydroxyprop-1-yn-1-yl)thiophen-2-yl)-2,4-dimethoxy-N-((3-methoxyphenyl)sulfonyl)benzamide]
- IC50 [7]: 0.068 µM
- IC50 [8]: 0.172 ± 0.097 µM
- IC50 [9]: 0.048 µM
- IC50 [10]: 0.106 µM

Compound: COc1cc(C)c(C(=O)NS(=O)(=O)c2cccc3cccnc23)cc1-c1ccc(C#CCO)s1 [Compound 15, 5-(5-(3-Hydroxyprop-1-yn-1-yl)thiophen-2-yl)-4-methoxy-2-methyl-N-(quinolin-8-ylsulfonyl)benzamide]
- IC50 [7]: 0.013 µM
- IC50 [8]: 0.023 ± 0.01 µM
- IC50 [9]: 0.016 µM
- IC50 [10]: 0.038 µM

Compound: O=C(Cc1ccccc1Nc1c(Cl)cccc1Cl)NC1(C(=O)O)Cc2ccccc2C1 [Compound 13, bis-chloro-diphenylamine, 2-aminoindan-2-carboxyl derivative]
- IC50 [7]: 6.6 ± 1.3 µM
- IC50 [8]: 6.1 ± 1 µM
- IC50 [9]: 12.8 ± 1.3 µM
- IC50 [10]: 16.5 ± 1.8 µM

Compound: CC(C)OC(=O)[C@H](C)N[P@](=O)(OC[C@H]1O[C@@H](n2ccc(=O)[nH]c2=O)[C@](C)(F)[C@@H]1O)Oc1ccccc1 [Sofosbuvir, sofosbuvir]
- IC50 [11]: 0.38 ± 0.03 µM

Compound: COc1cc(O)c2c(=O)c(O)c(-c3ccc(O)c(O)c3)oc2c1 [Compound 12, rhamnetin]
- IC50 [12]: 2.2 ± 0.2 µM

Compound: C=CCCCCCCCCC(=O)O [Compound 17, undecylenic acid]
- EC50 [13]: 7.43 µM

Compound: O=C(O)CCCC(/C=C/c1ccccc1)c1c(O)c(C(CCCC(=O)O)CCc2ccccc2)c(O)c2c(=O)cc(-c3ccccc3)oc12 (stereo not drawn) [Compound 11, chartaceone D]
- IC50 [12]: 1.8 ± 1.2 µM

Compound: O=c1cc(-c2ccccc2)oc2cc(O)c(O)c(O)c12 [Compound 18, baicalein]
- EC50 [6]: 0.004 µM
- JEV ED50 ([14]; Figure 4): 27 µM
- EC50 [14]: 27 ± 4 µM
- EC50 [15]: 55.1 µM

Compound: podocarpusflavone A [Compound 10]
- IC50 [12]: 0.16 ± 0.02 µM
